Patent publication US20250144067A1, “PERSONALIZED STARVATION THERAPY FOR CANCER” (Faeth Therapeutics, Inc., priority 2021, published 2025)
Where a name gives a salt, the structure may show the parent alone. Read-outs that look alike come from different tables or passages of the source.

Experiments:
[1] = tested on: NCI-H292 lung cancer cells; test: FDA drug screening, complete media vs cholesterol-free media with simvastatin (TABLE 2); assay type: cell-based, human
[2] = tested on: NCI-H292 lung cancer cells; test: FDA drug screening, complete media vs cholesterol-free media without statin (TABLE 1); assay type: cell-based, human
[3] = NCI-H292 cells, FDA drug library screen, cholesterol-free media with simvastatin 0.04 μM
[4] = NCI-H292 cells, FDA drug library screen, complete media
[5] = complete media vs cholesterol-free media + simvastatin (0.04 μM), >0 enhanced anti-cancer activity, about 0 neutral, <0 antagonist
[6] = NCI-H292 cells, cholesterol-free media without statin, FDA drug library screen
[7] = NCI-H292 cells, complete media, FDA drug library screen
[8] = complete vs cholesterol-free media, >0 enhanced anti-cancer activity, about 0 neutral, <0 antagonist
[9] = complete media minus cholesterol-free media + simvastatin, >0 enhanced anti-cancer activity, about 0 neutral, <0 antagonist
[10] = Complete minus Cholesterol-free, greater than 0 enhanced anti-cancer activity, about 0 neutral, below 0 antagonist
[11] = NCI-H292 cells, FDA drug library screen, cholesterol-free media without statin
[12] = NCI-H292 cells, drug in cholesterol-free media with simvastatin 0.04 μM
[13] = NCI-H292 cells, drug in complete media
[14] = NCI-H292 cells, cholesterol-free media without statin
[15] = complete vs cholesterol-free media, greater than 0 enhanced anti-cancer activity, about 0 neutral, below 0 antagonists
[16] = NCI-H292 cells, cholesterol-free media with simvastatin 0.04 μM, cell growth value in FDA drug screen
[17] = NCI-H292 cells, complete media, cell growth value in FDA drug screen
[18] = Complete minus Cholesterol-free, >0 enhanced anti-cancer activity, about 0 neutral, <0 antagonist
[19] = Complete minus Cholesterol-free, greater than 0 enhanced anti-cancer activity, about 0 neutral, below 0 antagonists
[20] = NCI-H292 cells in cholesterol-free media without statin
[21] = NCI-H292 cells in complete media
[22] = Complete minus Cholesterol-free, […]

CSc1ccc2c(c1)N(CCC1CCCCN1C)c1ccccc1S2 (stereo not shown) [Thioridazine (hydrochloride)]
Cholesterol-free media + simvastatin (0.04 μM) [1, 3]: 1.073 | Complete Media [1, 4]: 0.9459 | Difference [1, 5]: −0.13 | Cholesterol-free [2, 6]: 1.045 | Complete [2, 7]: 1.124 | Difference [2, 8]: 0.08

CCCCCCCCCCCCCCCC[N+](C)(C)CCN(Cc1ccc(OC)cc1)c1ncccn1.[Br-] [Thonzonium (bromide)]
Cholesterol-free media + simvastatin (0.04 μM) [1, 3]: 0.2494 | Complete Media [1, 4]: 0.5638 | Difference [1, 9]: 0.31 | Difference [2, 10]: −0.13 | Cholesterol-free [2, 11]: 0.179 | Complete [2, 4]: 0.05155

Cc1ccc(C(C)C)c(O)c1 [Thymol]
Cholesterol-free media + simvastatin (0.04 μM) [1, 12]: 1.184 | Complete Media [1, 13]: 0.956 | Difference [1, 5]: −0.23 | Cholesterol-free [2, 14]: 1.354 | Complete ([2]; NCI-H292 cells, complete media): 1.041 | Difference [2, 15]: −0.31

Cc1ccsc1C(=CCCN1CCC[C@@H](C(=O)O)C1)c1sccc1C [Tiagabine (hydrochloride)]
Cholesterol-free media + simvastatin (0.04 μM) [1, 16]: 0.8465 | Complete Media [1, 17]: 0.9752 | Difference [1, 9]: 0.13 | Difference [2, 18]: −0.25 | Cholesterol-free [2, 14]: 1.406 | Complete ([2]; NCI-H292 cells, complete media): 1.159

CCCSc1nc(N[C@@H]2C[C@H]2c2ccc(F)c(F)c2)c2nnn([C@@H]3C[C@H](OCCO)[C@@H](O)[C@H]3O)c2n1 [Ticagrelor]
Cholesterol-free media + simvastatin (0.04 μM) [1, 3]: 0.854 | Complete Media [1, 4]: 1.275 | Difference [1, 9]: 0.42 | Difference [2, 19]: −0.72 | Cholesterol-free [2, 20]: 1.589 | Complete [2, 21]: 0.8706

CC1(C)S[C@@H]2[C@H](NC(=O)[C@H](C(=O)[O-])c3ccsc3)C(=O)N2[C@H]1C(=O)[O-].[Na+].[Na+] [Ticarcillin (disodium)]
Cholesterol-free media + simvastatin (0.04 μM) [1, 3]: 1.294 | Complete Media [1, 4]: 1.207 | Difference [1, 5]: −0.09 | Cholesterol-free [2, 6]: 0.7001 | Complete [2, 7]: 1.43 | Difference [2, 8]: 0.73

Clc1ccccc1CN1CCc2sccc2C1 [Ticlopidine (hydrochloride)]
Cholesterol-free media + simvastatin (0.04 μM) [1, 16]: 1.416 | Complete Media [1, 17]: 1.478 | Difference [1, 9]: 0.06 | Difference [2, 19]: −0.88 | Cholesterol-free [2, 20]: 1.64 | Complete [2, 21]: 0.7613

CN(C)c1cc(NC(=O)CNC(C)(C)C)c(O)c2c1C[C@H]1C[C@H]3[C@H](N(C)C)C(O)=C(C(N)=O)C(=O)[C@@]3(O)C(O)=C1C2=O [Tigecycline (tetramesylate)]
Cholesterol-free media + simvastatin (0.04 μM) [1, 3]: 0.4075 | Complete Media [1, 4]: 0.333 | Difference [1, 5]: −0.07 | Difference [2, 18]: 0.02 | Cholesterol-free [2, 6]: 0.1191 | Complete [2, 7]: 0.1424

CN(C)c1cc(NC(=O)CNC(C)(C)C)c(O)c2c1C[C@H]1C[C@H]3[C@H](N(C)C)C(O)=C(C(N)=O)C(=O)[C@@]3(O)C(O)=C1C2=O [Tigecycline]
Cholesterol-free media + simvastatin (0.04 μM) ([1]; NCI-H292 cells, FDA library drug in cholesterol-free media with simvastatin 0.04 μM): 1.179 | Complete Media ([1]; NCI-H292 cells, FDA library drug in complete media): 0.8929 | Difference ([1]; complete media vs cholesterol-free media + simvastatin (0.04 μM), […]): −0.29 | Difference [2, 22]: −0.13 | Cholesterol-free [2, 11]: 1.231 | Complete [2, 4]: 1.106

CCN(CC)CCOc1ccc2c(c1)C(=O)c1cc(OCCN(CC)CC)ccc1-2 [Tilorone (dihydrochloride)]
Cholesterol-free media + simvastatin (0.04 μM) [1, 12]: 1.099 | Complete Media [1, 13]: 0.8748 | Difference [1, 5]: −0.22 | Difference [2, 18]: −0.30 | Cholesterol-free [2, 14]: 1.404 | Complete ([2]; NCI-H292 cells, complete media): 1.104

CCS(=O)(=O)CCn1c([N+](=O)[O-])cnc1C [Tinidazole]
Cholesterol-free media + simvastatin (0.04 μM) [1, 12]: 0.8398 | Complete Media [1, 13]: 0.6611 | Difference [1, 5]: −0.18 | Difference [2, 10]: −0.13 | Cholesterol-free [2, 11]: 1.121 | Complete [2, 4]: 0.9876

CCOC(=O)c1c(N)sc2c1CCN(Cc1ccccc1)C2 [Tinoridine hydrochloride]
Cholesterol-free media + simvastatin (0.04 μM) [1, 16]: 1.034 | Complete Media [1, 17]: 1.059 | Difference [1, 9]: 0.03 | Difference [2, 10]: −0.11 | Cholesterol-free [2, 11]: 1.153 | Complete [2, 4]: 1.039

Clc1ccc(C(Cn2ccnc2)OCc2ccsc2Cl)c(Cl)c1 (stereo not shown) [Tioconazole]
Cholesterol-free media + simvastatin (0.04 μM) [1, 3]: 0.669 | Complete Media [1, 4]: 0.9672 | Difference [1, 9]: 0.30 | Difference [2, 18]: −0.27 | Cholesterol-free [2, 14]: 1.207 | Complete ([2]; NCI-H292 cells, complete media): 0.9413

CC(S)C(=O)NCC(=O)O (stereo not shown) [Tiopronin]
Cholesterol-free media + simvastatin (0.04 μM) [1, 16]: 1.026 | Difference [1, 9]: 0.12 | Difference [2, 18]: −0.20 | Cholesterol-free [2, 14]: 0.9241 | Complete ([2]; NCI-H292 cells, complete media): 0.7208

C[N+]1(C)[C@@H]2CC(OC(=O)C(O)(c3cccs3)c3cccs3)C[C@H]1[C@@H]1O[C@@H]12.[Br-] (stereo partly shown) [Tiotropium (Bromide)]
Cholesterol-free media + simvastatin (0.04 μM) [1]: 2.468 | Complete Media [1]: 1.196 | Difference [1]: −1.27 | Cholesterol-free [2]: 1.101 | Complete [2]: 0.8685 | Difference [2]: −0.23

N=C1CCCN1Cc1nc(O)nc(O)c1Cl [Tipiracil (hydrochloride)]
Cholesterol-free media + simvastatin (0.04 μM) [1, 3]: 0.8843 | Complete Media [1, 4]: 1.03 | Difference [1, 9]: 0.15 | Difference [2, 18]: 0.03 | Cholesterol-free [2, 6]: 0.8754 | Complete [2, 7]: 0.9052

CCC[C@@]1(CCc2ccccc2)CC(O)=C([C@H](CC)c2cccc(NS(=O)(=O)c3ccc(C(F)(F)F)cn3)c2)C(=O)O1 [Tipranavir]
Cholesterol-free media + simvastatin (0.04 μM) ([1]; NCI-H292 cells, cholesterol-free media with simvastatin 0.04 μM, FDA drug library screen (TABLE 2)): 1.22 | Complete Media ([1]; NCI-H292 cells, complete media, FDA drug library screen (TABLE 2)): 1.177 | Difference ([1]; complete media minus cholesterol-free media + simvastatin (0.04 μM), […]): −0.04 | Difference [2, 22]: −0.27 | Cholesterol-free [2, 14]: 0.9401 | Complete ([2]; NCI-H292 cells, complete media): 0.6703

O=C(O)Cc1cc(I)c(Oc2ccc(O)c(I)c2)c(I)c1 [Tiratricol]
Cholesterol-free media + simvastatin (0.04 μM) [1, 3]: 0.7173 | Difference [1, 9]: 0.43 | Difference [2, 19]: −0.55 | Cholesterol-free [2, 20]: 1.869 | Complete [2, 21]: 1.318

CCCCS(=O)(=O)N[C@@H](Cc1ccc(OCCCCC2CCNCC2)cc1)C(=O)O [Tirofiban (hydrochloride monohydrate)]
Cholesterol-free media + simvastatin (0.04 μM) [1, 3]: 1.824 | Complete Media [1, 4]: 1.693 | Difference [1, 5]: −0.13 | Difference [2, 19]: −0.96 | Cholesterol-free [2, 20]: 1.842 | Complete [2, 21]: 0.8788

COc1cc2nccc(Oc3ccc(NC(=O)Nc4cc(C)on4)c(Cl)c3)c2cc1OC [Tivozanib]
Cholesterol-free media + simvastatin (0.04 μM) [1, 3]: 0.868 | Complete Media [1, 4]: 1.06 | Difference [1, 9]: 0.19 | Cholesterol-free [2, 14]: 1.298 | Complete ([2]; NCI-H292 cells, complete media): 0.868 | Difference [2, 15]: −0.43

Clc1ccc2nsnc2c1NC1=NCCN1 [Tizanidine (hydrochloride)]
Cholesterol-free media + simvastatin (0.04 μM) [1, 12]: 1.174 | Complete Media [1, 13]: 0.9856 | Difference [1, 5]: −0.19 | Difference [2, 18]: 0.02 | Cholesterol-free [2, 6]: 1.07 | Complete [2, 7]: 1.09

NC[C@H]1O[C@H](O[C@H]2[C@H](O)[C@@H](O[C@H]3O[C@H](CO)[C@@H](O)[C@H](N)[C@H]3O)[C@H](N)C[C@@H]2N)[C@H](N)C[C@@H]1O [Tobramycin]
Cholesterol-free media + simvastatin (0.04 μM) [1, 16]: 0.8625 | Complete Media [1, 17]: 0.9069 | Difference [1, 9]: 0.04 | Cholesterol-free [2, 6]: 1.416 | Complete [2, 7]: 1.802 | Difference [2, 8]: 0.39

Cc1cccc(C)c1NC(=O)C(C)N (stereo not shown) [Tocainide (hydrochloride)]
Cholesterol-free media + simvastatin (0.04 μM) [1, 12]: 1.258 | Complete Media [1, 13]: 1.006 | Difference [1, 5]: −0.25 | Cholesterol-free [2, 14]: 1.376 | Complete ([2]; NCI-H292 cells, complete media): 0.9544 | Difference [2, 15]: −0.42

Cc1[nH]c(/C=C2\C(=O)Nc3ccc(F)cc32)c(C)c1C(=O)NCCN1CCCC1 [Toceranib]
Cholesterol-free media + simvastatin (0.04 μM) [1, 16]: 0.9375 | Complete Media [1, 17]: 1.022 | Difference [1, 9]: 0.08 | Cholesterol-free [2, 6]: 0.7492 | Complete [2, 7]: 1.361 | Difference [2, 8]: 0.61

C[C@@H]1CCN(C(=O)CC#N)C[C@@H]1N(C)c1ncnc2[nH]ccc12 [Tofacitinib]
Cholesterol-free media + simvastatin (0.04 μM) [1, 16]: 1.188 | Complete Media [1, 17]: 1.224 | Difference [1, 9]: 0.04 | Difference [2, 18]: −0.07 | Cholesterol-free [2, 6]: 1.303 | Complete [2, 7]: 1.238

CCc1ccc(Cc2ccc3c(c2)[C@]2(OC3)O[C@H](CO)[C@@H](O)[C@H](O)[C@H]2O)cc1 [Tofogliflozin (hydrate)]
Cholesterol-free media + simvastatin (0.04 μM) [1, 16]: 0.9605 | Complete Media [1, 17]: 1.04 | Difference [1, 9]: 0.08 | Cholesterol-free [2, 14]: 1.411 | Complete ([2]; NCI-H292 cells, complete media): 1.03 | Difference [2, 15]: −0.38

Cc1ccc(S(=O)(=O)NC(=O)NN2CCCCCC2)cc1 [Tolazamide]
Cholesterol-free media + simvastatin (0.04 μM) [1, 16]: 1.047 | Complete Media [1, 17]: 1.177 | Difference [1, 9]: 0.13 | Difference [2, 19]: −0.50 | Cholesterol-free [2, 20]: 1.412 | Complete [2, 21]: 0.9106

c1ccc(CC2=NCCN2)cc1 [Tolazoline (hydrochloride)]
Cholesterol-free media + simvastatin (0.04 μM) [1, 12]: 1.363 | Complete Media [1, 13]: 1.126 | Difference [1, 5]: −0.24 | Difference [2, 18]: −0.25 | Cholesterol-free [2, 14]: 1.249 | Complete ([2]; NCI-H292 cells, complete media): 0.9982
